In PMC8226722, “Comparison of Solution Chemical Properties and Biological Activity of Ruthenium Complexes of Selected β-Diketone, 8-Hydroxyquinoline and Pyrithione Ligands” (Pharmaceuticals, 2021):

Legend:
[1] = tested on: array of cancer cell lines including cisplatin- and adriamycin-resistant strains; set-up: method as in PMID 34065335; settings: cited from earlier work
[2] = Shake-flask n-octanol/water distribution coefficient; type: physicochemical; settings: 25.0 °C, 20 mM phosphate buffer
Procedure: Chloride ion concentrations of 4, 24 and 100 mM were chosen according to the chloride content of the nucleus, cytosol and blood serum, respectively. […] Then parallel artificial membrane permeability assay (PAMPA) was used to estimate the ability of the complexes to penetrate membranes by passive diffusion and the effective passive permeability coefficients (Peff) obtained for complexes 1–3 are shown in Table 4 (in case of 4, there are no data due to formation of precipitate).
Distribution coefficients at physiological pH (D7.4) of the complexes were determined by the traditional shake-flask method in n-octanol/buffered aqueous solution at pH 7.40 (20 mM phosphate buffer) at various chloride concentrations and at 25.0 ± 0.2 °C using UV-vis detection as described in our former works [37, 38, 42]. PAMPA was applied for the complexes with a Gentest pre-coated PAMPA Plate System (Corning, Corning, NY, USA) [56]. Briefly, a 96-well filter plate was used as the permeation acceptor and the 96-well bottom plate was used as the permeation donor. For simplicity, PBS was used both as donor and acceptor buffer throughout this study. […] Peff values were calculated according to the equation reported by Yu et al. [57].

Chlamydia trachomatis = assay: Antichlamydia activity in HeLa cells, direct qPCR; type: cell-based; settings: MOI 0.2, 48 h post infection
Procedure: Then the Hela cells were infected with C. trachomatis at multiplicity of infection (MOI) 0.2, and were treated with different concentrations of the complexes for 24 h. After 48 h post infection, the cells were lysed and the chlamydial growth reducing effect of the complexes was evaluated by comparing the chlamydial genom concentration to that seen on untreated/infected HeLa cells. The C. trachomatis DNA concentration was measured by direct quantitative PCR (qPCR). The average cycle threshold (Ct) numbers were calculated and –Ct values are shown at the various complex concentrations in Figure 2 for 7 and 8 (and Figure S2 for the rest of the complexes). The maximum C. trachomatis growth corresponded to a DNA concentration of Ct ~19 value as detected by direct qPCR, as well.
The Chlamydia trachomatis strain was propagated and partially purified as described previously with some modifications. The infected cells were stained with monoclonal antichlamydia lipopolysaccharide (LPS) antibody (AbD Serotec, Oxford, UK) and fluorescein isothiocyanate-labeled anti-mouse IgG (Sigma-Aldrich) and the number of cells containing chlamydial inclusions was counted under a UV microscope, and the titer was expressed as the number of inclusion forming units (IFU)/mL. […]

ovarian carcinoma CH1 = tested on: ovarian carcinoma CH1; set-up: method as in PMID 25856666; settings: cited from earlier work
osteosarcoma MG63 cells = tested on: osteosarcoma MG63 cells; set-up: method as in PMID 25856666; settings: cited from earlier work
Vero cells = assay: MTT cytotoxicity in Vero cells (maximum non-toxic concentration); settings: 24 h, up to 100 µM
Procedure: The antiviral effect of complexes against HSV-2 was screened using Vero cells (originally isolated from kidney epithelial cells) to host the growing viruses.
(§1) HeLa 229 cells (ATCC) and Vero cells (ATCC) were cultured in minimal essential medium (MEM) (Sigma, Steinheim, Germany) with Earle salts supplemented with 10% heat-inactivated fetal bovine serum (FBS) (Gibco; ThermoFisher Scientific, Inc., Waltham, MA, USA), 2 mM L-glutamine, 1× non-essential amino acids, 8 mM HEPES, 25 μg/mL gentamycin and 1 µg/mL fungisone. The cells were incubated for 1 h at room temperature to reduce the edge effect and then overnight at 37 °C, 5% CO2 to obtain a 90% confluent cell layer.
(§2) The density of cells was 4 × 10^4 cells/well in 100 µL of MEM with Earle salts supplemented with 10% heat-inactivated FBS, 2 mM L-glutamine, 1× MEM vitamins, 1× non-essential amino acids, 0.005% Na-pyruvate, 25 µg/mL gentamycin, 1 µg/mL fungisone). The plates were incubated for 1 h room temperature and then overnight at 37 °C, 5% CO2. Next day, when the cells reached a ~90% confluency, the medium was supplemented with the serial 2-fold dilutions of the complexes in three parallel wells for each concentration. […] After 24 h incubation for Vero cells and 48 h incubation for HeLa cells, 10 µL of the MTT (Sigma, Steinheim, Germany) labelling reagent (final concentration 0.5 mg/mL) was added to each well and the plate was incubated for 4 h at 37 °C, 5% CO2. After the incubation, 100 µL of the solubilisation solution (10% SDS in 1 M HCl) was added into each well, and the plate was allowed to stand overnight in the incubator at 37 °C, 5% CO2.

[3] = tested on: HeLa 229 human cervix carcinoma cells; assay: MTT cytotoxicity in HeLa 229 cells (maximum non-toxic concentration); settings: 48 h
Procedure: as §1, §2

[4] = tested on: hormone dependent MCF-7 breast cancer cell line; set-up: method as in PMID 27357845, PMID 31461189, PMID 24189185; settings: read-out: half maximal effective concentration, MCF-7; cited from earlier work
[5] = tested on: Human herpes simplex virus-2 (HSV-2); assay: Antiviral activity in Vero cells, direct qPCR; type: cell-based
Procedure: Then Vero cells were infected with HSV-2 (at MOI 0.2) and were treated with the complexes for 24 h. After 24 h post infection, the cells were lysed and the virus yield reducing effect of the compounds was evaluated by comparing the yield to that seen on untreated Vero cells. The HSV-2 DNA concentration was measured by direct qPCR.
Human herpes simplex virus-2 (HSV-2) strain was (gift from Dr. Ilona Mucsi, University of Szeged, Szeged, Hungary) grown in Vero (ATCC) cells and the infectivity was measured by using the plaque titration method. The virus titer was expressed in plaque forming units (PFU).
The plates were incubated for at 37 °C, 5% CO2 for 24 h. The plates were evaluated with quantitative PCR.
At the end of the infection (24 h for HSV-2, 48 h for C. trachomatis) the supernatants of the cells were removed and the cells were washed with PBS twice, and finally 100 μL in sucrose-phosphate-glutamic acid buffer (SPG) was measured into the wells, and the cells were subjected to two freeze-thaw cycles. The mixed cell lysates were used as a template in the qPCR as described previously. Briefly, qPCR was performed with the 5× HOT FIREPol®EvaGreen®qPCR Supermix (Solis Solis BioDyne, Tartu, Estonia) and C. trachomatis pykF gene specific primer pair in a Bio-Rad CFX96 real time PCR system. The pykF primer sequences were the following: 5′-[…]-3′, 5′-[…]-3′. For each sample the cycle threshold (Ct) number corresponding to the cycle where the amplification curve crossed the base line was determined. For the quantitative measurement of HSV-2 growth a similar qPCR method was used as was applied for C. trachomatis. The HSV-2 gD2 gene specific primer pair (gD2-F: 5′-[…]-3′, gD2-R 5′-[…]-3′ was used with a 69 °C annealing-extension temperature.

SMILES | logD7.4 ([2]; pH 7.4, c(KCl) 4 mM) | logD7.4 ([2]; pH 7.4, c(KCl) 24 mM) | logD7.4 ([2]; pH 7.4, c(KCl) 100 mM) | chlamydial growth difference between treated and untreated cells (Chlamydia trachomatis) | IC50 (ovarian carcinoma CH1) [µM] | IC50 (osteosarcoma MG63 cells) [µM] | toxicity in Vero cells (Vero cells) | maximum non-toxic concentration, HeLa 229 [3] [µM] | also measured
C1N2CN3CN1CP(C2)C3.Cc1ccc(C(C)C)cc1.F[P-](F)(F)(F)(F)F.[O-]n1ccc2ccccc2c1=S.[Ru+2] [complex 4] |  |  |  |  |  |  |  |  | concentration up to which inactive, cancer cell line panel [1]: > 50 µM
Cc1ccc(C(C)C)cc1.[Cl-].[O-]n1ccc2ccccc2c1=S.[Ru+2] [complex 3] | +0.92 ± 0.06 | +1.22 ± 0.04 | +1.37 ± 0.06 |  |  |  |  |  | 
C1N2CN3CN1CP(C2)C3.Cc1ccc(C(C)C)cc1.F[P-](F)(F)(F)(F)F.O=C(C=C([O-])C(F)(F)F)c1ccc(Cl)cc1.[Ru+2] [complex 8] |  |  |  | ca. 155 fold | 8 | 41 | did not produce significant toxicity at any of the concentrations | 50 | 
Cc1ccc(C(C)C)cc1.[Cl-].[O-]n1ccccc1=S.[Ru+2] [complex 1] | −0.43 ± 0.09 | −0.10 ± 0.05 | +0.31 ± 0.03 |  |  |  |  |  | EC50 [4]: 3.8 µM
Cc1ccc(C(C)C)cc1.O=C(C=C([O-])C(F)(F)F)c1ccc(Cl)cc1.[Cl-].[Ru+2] [complex 7] |  |  |  | ca. 101 fold | 17 | 64 | did not produce significant toxicity at any of the concentrations | 50 | HSV-2 growth difference ([5]; HSV-2 MOI 0.2, 24 h): ca. 237 fold; qPCR cycles difference (dCT) ([5]; HSV-2 MOI 0.2, 24 h): ~ 7.89 qPCR cycles; IC50 ([5]; MOI 0.2, 24 h, qPCR, read-out: IC50 HSV-2 growth): ~25 µM; IC90 ([5]; MOI 0.2, 24 h, qPCR, read-out: IC90 HSV-2 growth): 50 to 100 µM
